Laboratory results reported in patent US12252497B2, “Ras inhibitors” (Revolution Medicines, Inc., priority 2021, dated 2025).
Read-outs that look alike come from different tables or passages of the source.

Conditions: ester bond, 18-membered ring

CCn1c(-c2cc(N3CCN4CCOC[C@@H]4C3)cnc2[C@H](C)OC)c2c3cc(ccc31)-c1csc(n1)C[C@H](NC(=O)OC(C)(C)C)C(=O)N1CCC[C@H](N1)C(=O)OCC(C)(C)C2
ring closure, isolated yield (from CCn1c(-c2cc(N3CCN4CCOC[C@@H]4C3)cnc2[C@H](C)OC)c(CC(C)(C)CO)c2cc(-c3csc(C[C@H](NC(=O)OC(C)(C)C)C(=O)N4CCC[C@@H](C(=O)O)N4)n3)ccc21, EDCI/HOBt/DIPEA, DCM, 11.3 mM, 25.0 °C): 52%

CCn1c(-c2cc(N3CCN4CCCC[C@@H]4C3)cnc2[C@H](C)OC)c2c3cc(ccc31)-c1cc(cc(C(F)F)c1)C[C@H](NC(=O)OC(C)(C)C)C(=O)N1CCC[C@H](N1)C(=O)OCC(C)(C)C2
ring closure, isolated yield (from CCn1c(-c2cc(N3CCN4CCCC[C@@H]4C3)cnc2[C@H](C)OC)c(CC(C)(C)CO)c2cc(-c3cc(C[C@H](NC(=O)OC(C)(C)C)C(=O)N4CCC[C@@H](C(=O)O)N4)cc(C(F)F)c3)ccc21, EDCI/HOBt/DIEA, DCM, 5.27 mM, 25.0 °C): 90%

CCn1c(-c2cc(N3CCN4CCC[C@@H]4C3)cnc2[C@H](C)OC)c2c3cc(ccc31)-c1csc(n1)C[C@H](NC(=O)OC(C)(C)C)C(=O)N1CCC[C@H](N1)C(=O)OCC(C)(C)C2
ring closure, isolated yield (from CCn1c(-c2cc(N3CCN4CCC[C@@H]4C3)cnc2[C@H](C)OC)c(CC(C)(C)CO)c2cc(-c3csc(C[C@H](NC(=O)OC(C)(C)C)C(=O)N4CCC[C@@H](C(=O)O)N4)n3)ccc21, EDCI/HOBt/DIEA, DCM, 111.6 mM, 25.0 °C, 16.0 h): 37%

CO[C@@H](C)c1ncc(N2CCN(C3CC3)CC2)cc1-c1c2c3cc(ccc3n1CC(F)(F)F)N1CCO[C@@H](C[C@H](NC(=O)OC(C)(C)C)C(=O)N3CCC[C@H](N3)C(=O)OCC(C)(C)C2)C1
ring closure, isolated yield (from CO[C@@H](C)c1ncc(N2CCN(C3CC3)CC2)cc1-c1c(CC(C)(C)CO)c2cc(N3CCO[C@@H](C[C@H](NC(=O)OC(C)(C)C)C(=O)N4CCC[C@@H](C(=O)O)N4)C3)ccc2n1CC(F)(F)F, EDCI/HOBt/DIEA, DCM, 9.22 mM, 25.0 °C): 64%

CCn1c(-c2cc(N3CCN4CCOC[C@@H]4C3)cnc2[C@H](C)OC)c2c3cc(ccc31)-c1cc(CF)cc(c1)C[C@H](NC(=O)OC(C)(C)C)C(=O)N1CCC[C@H](N1)C(=O)OCC(C)(C)C2
ring closure, isolated yield (from CCn1c(-c2cc(N3CCN4CCOC[C@@H]4C3)cnc2[C@H](C)OC)c(CC(C)(C)CO)c2cc(-c3cc(CF)cc(C[C@H](NC(=O)OC(C)(C)C)C(=O)N4CCC[C@@H](C(=O)O)N4)c3)ccc21, EDCI/HOBt/DIEA, DCM, 11.3 mM, 0.0 °C): 69%

CCn1c(-c2cc(N3CCN4CCCC[C@@H]4C3)cnc2[C@H](C)OC)c2c3cc(ccc31)N1CCO[C@@H](C[C@H](NC(=O)OC(C)(C)C)C(=O)N3CCC[C@H](N3)C(=O)OCC(C)(C)C2)C1
ring closure, isolated yield (from CCn1c(-c2cc(N3CCN4CCCC[C@@H]4C3)cnc2[C@H](C)OC)c(CC(C)(C)CO)c2cc(N3CCO[C@@H](C[C@H](NC(=O)OC(C)(C)C)C(=O)N4CCC[C@@H](C(=O)O)N4)C3)ccc21, EDCI/HOBt/DIPEA, DMF, 11.2 mM, 25.0 °C): 73%

CO[C@@H](C)c1ncc(N2CCN(C3CC3)CC2)cc1-c1c2c3cc(ccc3n1CC(F)(F)F)C1=CCCN(C1)C[C@H](NC(=O)OC(C)(C)C)C(=O)N1CCC[C@H](N1)C(=O)OCC(C)(C)C2
ring closure, isolated yield (from CO[C@@H](C)c1ncc(N2CCN(C3CC3)CC2)cc1-c1c(CC(C)(C)CO)c2cc(C3=CCCN(C[C@H](NC(=O)OC(C)(C)C)C(=O)N4CCC[C@@H](C(=O)O)N4)C3)ccc2n1CC(F)(F)F, EDCI/HOBt/DIEA, DCM, 10.8 mM, 25.0 °C): 73%

CCn1c(-c2cc(N3CCN(C4CC4)CC3)cnc2[C@H](C)OC)c2c3cc(ccc31)N1CCO[C@@H](C[C@H](NC(=O)OCc3ccccc3)C(=O)N3CCC[C@H](N3)C(=O)OCC(C)(C)C2)C1
ring closure, isolated yield (from CCn1c(-c2cc(N3CCN(C4CC4)CC3)cnc2[C@H](C)OC)c(CC(C)(C)CO)c2cc(N3CCO[C@@H](C[C@H](NC(=O)OCc4ccccc4)C(=O)N4CCC[C@@H](C(=O)O)N4)C3)ccc21, EDCI/HOBt/DIEA, DCM, 11.3 mM, 30.0 °C): 50%

CCn1c(-c2cc(N3CCN4CCOC[C@@H]4C3)cnc2[C@H](C)OC)c2c3cc(ccc31)N1CCO[C@@H](C[C@H](NC(=O)OC(C)(C)C)C(=O)N3CCC[C@H](N3)C(=O)OCC(C)(C)C2)C1
ring closure, isolated yield (from CCn1c(-c2cc(N3CCN4CCOC[C@@H]4C3)cnc2[C@H](C)OC)c(CC(C)(C)CO)c2cc(N3CCO[C@@H](C[C@H](NC(=O)OC(C)(C)C)C(=O)N4CCC[C@@H](C(=O)O)N4)C3)ccc21, EDCI/HOBt/NMM, DCM, 11.2 mM, 25.0 °C): 51%

CO[C@@H](C)c1ncc(N2CCN3CCOC[C@@H]3C2)cc1-c1c2c3cc(ccc3n1CC(F)(F)F)N1CCO[C@@H](C[C@H](NC(=O)OC(C)(C)C)C(=O)N3CCC[C@H](N3)C(=O)OCC(C)(C)C2)C1
ring closure, isolated yield (from CO[C@@H](C)c1ncc(N2CCN3CCOC[C@@H]3C2)cc1-c1c(CC(C)(C)CO)c2cc(N3CCO[C@@H](C[C@H](NC(=O)OC(C)(C)C)C(=O)N4CCC[C@@H](C(=O)O)N4)C3)ccc2n1CC(F)(F)F, EDCI/HOBt/NMM, DCM, 10.6 mM, 25.0 °C): 48%

CCn1c(-c2cc(N3CCN(C(=O)OCc4ccccc4)CC3)cnc2[C@H](C)OC)c2c3cc(ccc31)-c1csc(n1)C[C@H](NC(=O)OC(C)(C)C)C(=O)N1CCC[C@H](N1)C(=O)OCC(C)(C)C2
ring closure, isolated yield (from CCn1c(-c2cc(N3CCN(C(=O)OCc4ccccc4)CC3)cnc2[C@H](C)OC)c(CC(C)(C)CO)c2cc(-c3csc(C[C@H](NC(=O)OC(C)(C)C)C(=O)N4CCC[C@@H](C(=O)O)N4)n3)ccc21, EDCI/HOBt/DIPEA, MeCN, 10.3 mM, 25.0 °C): 55%

CCn1c(-c2cc(N3CCN4CCCC[C@@H]4C3)cnc2[C@H](C)OC)c2c3cc(ccc31)-c1csc(n1)C[C@H](NC(=O)OC(C)(C)C)C(=O)N1CCC[C@H](N1)C(=O)OCC(C)(C)C2
ring closure, isolated yield (from CCn1c(-c2cc(N3CCN4CCCC[C@@H]4C3)cnc2[C@H](C)OC)c(CC(C)(C)CO)c2cc(-c3csc(C[C@H](NC(=O)OC(C)(C)C)C(=O)N4CCC[C@@H](C(=O)O)N4)n3)ccc21, EDCI/HOBt/DIPEA, DCM, 11.3 mM, 25.0 °C): 49%

CO[C@@H](C)c1ncc(N2CCN3CCCC[C@@H]3C2)cc1-c1c2c3cc(ccc3n1CC(F)(F)F)-c1cccc(c1)C[C@H](NC(=O)OC(C)(C)C)C(=O)N1CCC[C@H](N1)C(=O)OCC(C)(C)C2
ring closure, isolated yield (from CO[C@@H](C)c1ncc(N2CCN3CCCC[C@@H]3C2)cc1-c1c(CC(C)(C)CO)c2cc(-c3cccc(C[C@H](NC(=O)OC(C)(C)C)C(=O)N4CCC[C@@H](C(=O)O)N4)c3)ccc2n1CC(F)(F)F, EDCI.HCl/HOBt/DIPEA, DCM, 12.9 mM, 0.0 °C): 65%

CCn1c(-c2cc(N3CCN(C4CC4)CC3)cnc2[C@H](C)OC)c2c3cc(ccc31)-c1cccc(c1)C[C@H](NC(=O)OC(C)(C)C)C(=O)N1CCC[C@H](N1)C(=O)OCC(C)(C)C2
ring closure, isolated yield (from CCn1c(-c2cc(N3CCN(C4CC4)CC3)cnc2[C@H](C)OC)c(CC(C)(C)CO)c2cc(-c3cccc(C[C@H](NC(=O)OC(C)(C)C)C(=O)N4CCC[C@@H](C(=O)O)N4)c3)ccc21, EDCI/HOBt/DIEA, DCM, 14.4 mM, 25.0 °C): 64%

CO[C@@H](C)c1ncc(N2CCN3CCOC[C@@H]3C2)cc1-c1c2c3cc(ccc3n1CC(F)(F)F)-c1csc(n1)C[C@H](NC(=O)OC(C)(C)C)C(=O)N1CCC[C@H](N1)C(=O)OCC(C)(C)C2
ring closure, isolated yield (from CO[C@@H](C)c1ncc(N2CCN3CCOC[C@@H]3C2)cc1-c1c(CC(C)(C)CO)c2cc(-c3csc(C[C@H](NC(=O)OC(C)(C)C)C(=O)N4CCC[C@@H](C(=O)O)N4)n3)ccc2n1CC(F)(F)F, EDCI/HOBt/DIEA, DCM, 10.6 mM, 25.0 °C): 64%

CCn1c(-c2cc(N3CCN4CCC[C@@H]4C3)cnc2[C@H](C)OC)c2c3cc(ccc31)-c1cccc(c1)C[C@H](NC(=O)OC(C)(C)C)C(=O)N1CCC[C@H](N1)C(=O)OCC(C)(C)C2
ring closure, isolated yield (from CCn1c(-c2cc(N3CCN4CCC[C@@H]4C3)cnc2[C@H](C)OC)c(CC(C)(C)CO)c2cc(-c3cccc(C[C@H](NC(=O)OC(C)(C)C)C(=O)N4CCC[C@@H](C(=O)O)N4)c3)ccc21, EDCI/HOBt/DIPEA, DCM, 16.7 mM, 25.0 °C): 42%

CCn1c(-c2cc(N3CCN4CCOC[C@@H]4C3)cnc2[C@H](C)OC)c2c3cc(ccc31)-c1cc(cc(C(F)F)c1)C[C@H](NC(=O)OC(C)(C)C)C(=O)N1CCC[C@H](N1)C(=O)OCC(C)(C)C2
ring closure, isolated yield (from CCn1c(-c2cc(N3CCN4CCOC[C@@H]4C3)cnc2[C@H](C)OC)c(CC(C)(C)CO)c2cc(-c3cc(C[C@H](NC(=O)OC(C)(C)C)C(=O)N4CCC[C@@H](C(=O)O)N4)cc(C(F)F)c3)ccc21, EDCI/HOBt/DIEA, DCM, 10.7 mM, 25.0 °C): 42%

CCn1c(-c2cc(N3CCN4CCC[C@@H]4C3)cnc2[C@H](C)OC)c2c3cc(ccc31)-c1cc(cc(C(F)F)c1)C[C@H](NC(=O)OC(C)(C)C)C(=O)N1CCC[C@H](N1)C(=O)OCC(C)(C)C2
ring closure, isolated yield (from CCn1c(-c2cc(N3CCN4CCC[C@@H]4C3)cnc2[C@H](C)OC)c(CC(C)(C)CO)c2cc(-c3cc(C[C@H](NC(=O)OC(C)(C)C)C(=O)N4CCC[C@@H](C(=O)O)N4)cc(C(F)F)c3)ccc21, EDCI/HOBt/DIEA, DCM, 10.1 mM, 25.0 °C): 78%
